Experimental data reported in patent US20220193085A1, “METHODS OF THROMBOPROPHYLAXIS” (JANSSEN PHARMACEUTICALS, INC., priority 2020, published 2022).

Key:
[1] = UNIVERSE primary efficacy outcome: any thrombotic event (CIAC adjudicated); assay type: in vivo, pediatric patients; conditions: Part B rivaroxaban N=64, aspirin N=34, up to end of treatment, full analysis set
From the text: This study was a prospective, open-label, active-controlled, multicenter study designed to evaluate the PK and PK/PD profiles, safety, and efficacy of rivaroxaban for thromboprophylaxis in pediatric patients 2 to 8 years of age with single ventricle physiology who have completed the Fontan procedure within 4 months prior to enrollment. The trial was approved by the institutional review board of each participating institution, as well as the appropriate national ethics committee. Written informed consent for trial participation was obtained from the parent or guardian of each patient. An Independent Data Monitoring Committee (IDMC) ensured patients' safety throughout the trial. A Central Independent Adjudication Committee (CIAC) reviewed all efficacy and safety events.
Part B was the randomized, open-label, active-controlled part of the study that evaluated the safety and efficacy of twice daily administration of rivaroxaban compared to ASA (usual standard of care) for thromboprophylaxis for 12 months. Patients randomized to rivaroxaban also had PK and PD assessments.
Primary efficacy outcome: Any thrombotic event, venous or arterial, symptomatic or asymptomatic defined as: • The appearance of a new thrombus within the cardiovascular system on either routine surveillance or clinically indicated imaging, or • The occurrence of a clinical event known to be strongly associated with thrombus (e.g., stroke, pulmonary embolism).
All efficacy outcomes were adjudicated by the CIAC, blinded to assigned treatment.

[2] = human, in vivo
From the text: The methods and products of the invention concern dosages that are clinically proven safe and/or effective. Adverse events that impact whether the inventive dose, dosing regimen, treatment or method with rivaroxaban of the present invention are safe are adverse bleeding events that include, for example, major bleeding. “Major bleeding” as used herein is defined in accordance with ISTH criteria as clinically overt bleeding associated with a decrease in hemoglobin of […], a transfusion of the equivalent of […] of packed red blood cells or whole blood, or bleeding at a critical site, or with fatal outcome. Other adverse events include clinically relevant non-major bleeding and trivial (minimal) bleeding.
The primary safety outcome was ISTH defined major bleeding. Major bleeding was defined as overt bleeding and: […]
1) Associated with a fall in hemoglobin of 2 g/dL or more; or 2) Leading to a transfusion of the equivalent of 2 or more units of packed red blood cells or whole blood in adults; or 3) Occurring in a critical site: intracranial, intraspinal, intraocular, pericardial, intraarticular, intramuscular with compartment syndrome, retroperitoneal; or 4) Contributing to death.
The secondary safety outcomes were: Clinically relevant non-major bleeding and trivial (minimal) bleeding events.

[3] = UNIVERSE adverse events, serious adverse events and treatment discontinuation; assay type: in vivo, pediatric patients; conditions: Part B rivaroxaban N=64, aspirin N=34
From the text: Other safety outcomes: Any adverse events and serious adverse events (SAES).

[4] = treatment-emergent, safety set, listed as ASA
[5] = up to end of treatment, full analysis set

## CC(=O)Oc1ccccc1C(=O)O [Aspirin, acetylsalicylic acid]
[1]
  All-cause mortality, No. of subjects with event: 0
  Any thrombotic event (primary efficacy outcome), % of subjects: (8.8%)
  Arterial/intracardiac thrombosis, subjects n (%): 0
  Ischemic stroke, % of subjects: (2.9%)
  Other thrombosis, subjects n (%): 0
  Pulmonary embolism, subjects n (%): 0
  Venous thromboembolism, % of subjects: (5.9%)
  Venous thromboembolism, No. of subjects with event: 2/34
  Venous thrombosis, % of subjects: (5.9%)
[1]; listed as ASA
  Any thrombotic event (primary efficacy outcome), % of subjects: 9%
[2]
  CRNM bleeding: GI-Lower, % of subjects: (2.9%)
  CRNM bleeding: Gastrointestinal, % of subjects: (2.9%)
  CRNM bleeding: Gastrointestinal, subjects n (%): 1
  CRNM bleeding: Gingival, subjects n (%): 0
  CRNM bleeding: Hematoma, % of subjects: (2.9%)
  CRNM bleeding: Skin, % of subjects: (2.9%)
  CRNM bleeding: Subconjunctival, % of subjects: (2.9%)
  Clinically relevant non-major (CRNM) bleeding, % of subjects: (8.8%)
  Clinically relevant non-major (CRNM) bleeding, No. of subjects with event: 3/34
  Clinically relevant non-major bleeding, % of subjects: (8.8%)
  Fall in hemoglobin ≥2 g/dL or transfusion of the equivalent ≥2 units of packed red blood cell or whole blood in adults, No. of subjects with event: 0
  Fatal or critical site bleeding, No. of subjects with event: 0
  Major and clinically relevant non-major bleeding, % of subjects: (8.8%)
  Major and clinically relevant non-major bleeding, No. of subjects with event: 3/34
  Major bleeding (primary safety outcome), No. of subjects with event: 0
  Subjects with 1 or more on-treatment bleeding events, % of subjects: (41.2%)
  Trivial (minimal) bleeding, % of subjects: (35.3%)
  Trivial (minimal) bleeding, No. of subjects with event: 12/34
  Trivial bleeding, % of subjects: (35.3%)
  Trivial bleeding: Epistaxis, % of subjects: (8.8%)
  Trivial bleeding: Epistaxis, subjects n (%): 3
  Trivial bleeding: GI-Lower, % of subjects: (2.9%)
  Trivial bleeding: GI-Lower, subjects n (%): 1
  Trivial bleeding: GI-Upper, subjects n (%): 0
  Trivial bleeding: Gastrointestinal, % of subjects: (2.9%)
  Trivial bleeding: Gastrointestinal, subjects n (%): 1
  Trivial bleeding: Gingival, % of subjects: (2.9%)
  Trivial bleeding: Gingival, subjects n (%): 1
  Trivial bleeding: Hematoma, % of subjects: (5.9%)
  Trivial bleeding: Hematoma, subjects n (%): 2
  Trivial bleeding: Skin, % of subjects: (23.5%)
  Trivial bleeding: Vascular Access Site, subjects n (%): 0
[3]; safety set
  AEs related to Study Agent, % of subjects: (26.5%)
  AEs related to Study Agent, n (%): 9
  SAEs related to Study Agent, n (%): 0
  TEAEs resulting in Permanent Discontinuation of Study Agent, n (%): 0
[3]; treatment-emergent, safety set
  Adverse event: Pleural Effusion, % of participants: (6%)
  All TEAEs (subjects with 1 or more), % of subjects: (85.3%)
  All TESAEs (subjects with 1 or more serious adverse events), % of subjects: (23.5%)
  Serious adverse event: Infections, % of participants: (12%)
  Serious adverse event: Infections, n (%): 4
  Serious adverse event: Pleural Effusion, % of participants: (6%)
  Serious adverse event: Pleural Effusion, n (%): 2
  Serious adverse event: Respiratory, Thoracic, and Mediastinal Disorders, % of participants: (9%)
  Serious adverse event: Respiratory, Thoracic, and Mediastinal Disorders, n (%): 3
  TEAE: Gastrointestinal Disorders, % of subjects: (26.5%)
  TEAE: Gastrointestinal Disorders, n (%): 9
  TEAE: General Disorders and Administration Site Conditions, % of subjects: (23.5%)
  TEAE: General Disorders and Administration Site Conditions, n (%): 8
  TEAE: Infections and infestations, % of subjects: (64.7%)
  TEAE: Injury, Poisoning, and Procedural Complications, % of subjects: (29.4%)
  TEAE: Injury, Poisoning, and Procedural Complications, n (%): 10
  TEAE: Respiratory, Thoracic, and Mediastinal Disorders, % of subjects: (26.5%)
  TEAE: Respiratory, Thoracic, and Mediastinal Disorders, n (%): 9
  TEAE: Skin and Subcutaneous Tissue Disorders, % of subjects: (26.5%)
  TEAE: Skin and Subcutaneous Tissue Disorders, n (%): 9
  TEAE: Vascular Disorders, % of subjects: (2.9%)
  TEAE: Vascular Disorders, n (%): 1
[3]; [4]
  Adverse event: Pleural Effusion, n (%): 2
  All TEAEs (subjects with 1 or more), % of subjects: (85%)
  All TEAEs (subjects with 1 or more), n (%): 29
  All TESAEs (subjects with 1 or more serious adverse events), % of subjects: (24%)
  All TESAEs (subjects with 1 or more serious adverse events), n (%): 8
  TEAE: Gastrointestinal Disorders, % of subjects: (26%)
  TEAE: General Disorders and Administration Site Conditions, % of subjects: (24%)
  TEAE: Infections and infestations, % of subjects: (65%)
  TEAE: Infections and infestations, n (%): 22
  TEAE: Injury, Poisoning, and Procedural Complications, % of subjects: (29%)
  TEAE: Respiratory, Thoracic, and Mediastinal Disorders, % of subjects: (26%)
  TEAE: Skin and Subcutaneous Tissue Disorders, % of subjects: (26%)
  TEAE: Vascular Disorders, % of subjects: (3%)
[3]; [5]
  SAEs, % of subjects: (23.5%)
  SAEs, No. of subjects with event: 8/34
